Two compounds from ChEMBL document CHEMBL1142729 (J Med Chem, 2005) can be followed below.

pIC50: −log10 of the molar value.

The target of test [1] is Carbonic anhydrase 2 (Homo sapiens, UniProt P00918). The test is described as follows: Inhibitory constant value for Carbonic anhydrase II in human determined in pH-shift assay.
The nature of test [2]: Inhibition concentration for carbonic anhydrase I and carbonic anhydrase II in rat determined in CO2 hydration assay.

As usually defined, the pIC50 is the negative decadic logarithm of the IC50, by convention in mol/L. As to `NS(=O)(=O)OCC1Oc2ccccc2O1`, the pIC50 in test [1] was 6.55. Compound `CC1(C)O[C@@H]2[C@@H](CO[C@@]3(COS(N)(=O)=O)OC(C)(C)O[C@@H]23)O1` [TOPIRAMATE] showed a pIC50 in test [2] of 5.05.
